Source: patent US20240024273A1, “TOPICAL ADMINISTRATION OF 2-(DIETHYLAMINO)ETHYL 2-(4-ISOBUTYLPHENYL)PROPRIONATE FOR TREATMENT OF DISEASES” (TECHFIELDS PHARMA CO., LTD., priority 2020, published 2024)

System: Mild to Moderate Osteoarthritis of the Knee
Assay: Phase 2 study: WOMAC (VAS) pain subscale score, target knee
Assay type: in vivo, human
Details: for Change of WOMAC pain score from baseline (±SEM) / Percentage of improvement from baseline, WOMAC pain score: all patients taken as active
Text: This is a Phase 2, multicenter, randomized, double blind (within dose), placebo controlled, parallel group, proof of concept, and dose range finding study to evaluate the efficacy, safety, and PK of 2-(diethylamino)ethyl 2-(4-isobutylphenyl)propionate hydrochloride spray in adult subjects with clinically symptomatic mild to moderate OA of the knee. For subjects with bilateral knee pain, both knees will be treated, but the most symptomatic knee (i.e., the most painful knee as measured by the Western Ontario and McMaster University Osteoarthritis Index [WOMAC® 3.1] pain subscale score at Screening) will be designated as the target knee for efficacy analyses. For subjects with unilateral knee pain, only the symptomatic (target) knee will be treated.
After a Screening Period of up to 3 weeks and radiographic evaluation of the target knee joint space, a subject will be randomly assigned to 1 of 3 treatment groups in a 1:1:1 ratio with a 2:1 ratio of active:placebo within each treatment group (ie, 2 subjects to active treatment and 1 subject to placebo): • Group A: 8.75 mg 2-(diethylamino)ethyl 2-(4-isobutylphenyl)propionate/knee (2 sprays/knee, one spray to the medial surface and one spray to the lateral surface of the knee), twice daily (BID, approximately every 12 hours; n=50) or placebo (2 sprays/knee), BID (approximately every 12 hours; n=25) for a total of 4 sprays per knee per day; • Group B: 17.5 mg 2-(diethylamino)ethyl 2-(4-isobutylphenyl)propionate/knee (4 sprays/knee, one spray to the medial surface and one spray to the lateral surface of the knee, and one spray to front and one spray to the back of the knee), BID (approximately every 12 hours; n=50) or placebo (4 sprays/knee), BID (approximately every 12 hours; n=25) for a total of 8 sprays per knee per day; • Group C: 35 mg 2-(diethylamino)ethyl 2-(4-isobutylphenyl)propionate/knee (8 sprays/knee, each spray is to be applied to a different non-overlapping area around the knee, and the areas are to be uniformly distributed around the knee), BID (approximately every 12 hours; n=50) or placebo (8 sprays/knee), BID (approximately every 12 hours; n=25) for a total of 16 sprays per knee per day.
The VAS version of the WOMAC will be used for the Primary and Secondary Efficacy Endpoints. Efficacy endpoints will be assessed at Screening and Baseline (Day 1) and at the Week 2, Week 4, Week 8, and Week 12/EOS visits.
The Primary Efficacy Endpoint is the change from Baseline in the WOMAC (VAS) pain subscale score for the target knee at […] of treatment.
3.9.2. Secondary Efficacy Endpoints: • 1. Change from Baseline in the WOMAC (VAS) pain subscale score for the target knee at 2, 4, and 8 weeks of treatment; • 2. Change from Baseline in the WOMAC (VAS) stiffness subscale scores for the target knee and WOMAC (VAS) functional ability subscale scores at 2, 4, 8, and 12 weeks of treatment; • 3. Change from Baseline in the overall WOMAC (VAS) score at 2, 4, 8, and 12 weeks of treatment.
The Primary Efficacy Endpoint is change from Baseline in the WOMAC (VAS) pain subscale score for the target knee at 4 weeks of treatment, and will be analyzed using an analysis of covariance (ANCOVA). Treatment will be included as a fixed class effect and WOMAC Baseline pain subscale score as covariates. The primary comparisons of interest will be the difference between active Group A (8.75 mg 2-(diethylamino)ethyl 2-(4-isobutylphenyl)propionate/knee) and combined placebo, active Group B (17.5 mg 2-(diethylamino)ethyl 2-(4-isobutylphenyl)propionate/knee) and combined placebo, and active Group C (35 mg 2-(diethylamino)ethyl 2-(4-isobutylphenyl)propionate/knee) and combined placebo. […]

[1] = 8.75 mg/knee (BID), Follow up (week 13, day 91)
[2] = 8.75 mg/knee (BID), Week 2 (day 14)
[3] = 8.75 mg/knee (BID), Week 4 (day 28)
[4] = 8.75 mg/knee (BID), Week 8 (day 56)
[5] = 8.75 mg/knee (BID), Week 12 (day 84)
[6] = 17.5 mg/knee (BID), Follow up (week 13, day 91)
[7] = 17.5 mg/knee (BID), Week 2 (day 14)
[8] = 17.5 mg/knee (BID), Week 4 (day 28)
[9] = 17.5 mg/knee (BID), Week 8 (day 56)
[10] = 17.5 mg/knee (BID), Week 12 (day 84)
[11] = 35 mg/knee (BID), Follow up (week 13, day 91)
[12] = 35 mg/knee (BID), Week 2 (day 14)
[13] = 35 mg/knee (BID), Week 4 (day 28)
[14] = 35 mg/knee (BID), Week 8 (day 56)
[15] = 35 mg/knee (BID), Week 12 (day 84)

For `CCN(CC)CCOC(=O)C(C)c1ccc(CC(C)C)cc1` (stereo not drawn) [2-(diethylamino)ethyl 2-(4-isobutylphenyl)propionate], the “Change of WOMAC pain score from baseline (±SEM), adjusted by […] of the testing drug amount” value [1] was −34.5(±5.6) mm, the “Percentage of improvement from baseline, WOMAC pain score, adjusted by […] of the testing drug amount” value (“Percentage … of the testing drug amount” for short) [1] was −57.6% and the “Change of WOMAC pain score from baseline (±SEM)” value [1] was −20.1(±3.25) mm. The “Percentage of improvement from baseline, WOMAC pain score” value [1] was −33.6%, the “Change of WOMAC pain score from baseline (±SEM), adjusted by […] of the testing drug amount” value [2] was −19.2(±4.1) mm and the “Percentage … of the testing drug amount” value [2] was −32.1%. For the same molecule, the “Change of WOMAC pain score from baseline (±SEM)” value [2] was −11.2(±2.39) mm, the “Percentage of improvement from baseline, WOMAC pain score” value [2] was −18.7% and the “Change of WOMAC pain score from baseline (±SEM), adjusted by […] of the testing drug amount” value [3] was −29.2(±4.8) mm. The “Percentage … of the testing drug amount” value [3] was −48.7%, the “Change of WOMAC pain score from baseline (±SEM)” value [3] was −17.0(±2.79) mm and the “Percentage of improvement from baseline, WOMAC pain score” value [3] was −28.4%. For the same molecule, the “Change of WOMAC pain score from baseline (±SEM), adjusted by […] of the testing drug amount” value [4] was −36.7(±4.8) mm, the “Percentage … of the testing drug amount” value [4] was −61.4% and the “Change of WOMAC pain score from baseline (±SEM)” value [4] was −21.4(±2.81) mm. The “Percentage of improvement from baseline, WOMAC pain score” value [4] was −35.8%, the “Change of WOMAC pain score from baseline (±SEM), adjusted by […] of the testing drug amount” value [5] was −37.0(±5.4) mm and the “Percentage … of the testing drug amount” value [5] was −61.9%. For the same molecule, the “Change of WOMAC pain score from baseline (±SEM)” value [5] was −21.6(±3.13) mm, the “Percentage of improvement from baseline, WOMAC pain score” value [5] was −36.1% and the “Change of WOMAC pain score from baseline (±SEM), adjusted by […] of the testing drug amount” value [6] was −37.9(±5.2) mm. The “Percentage … of the testing drug amount” value [6] was −62.1%, the “Change of WOMAC pain score from baseline (±SEM)” value [6] was −22.1(±3.01) mm and the “Percentage of improvement from baseline, WOMAC pain score” value [6] was −36.2%. The “Change of WOMAC pain score from baseline (±SEM), adjusted by […] of the testing drug amount” value [7] was −25.7(±3.7) mm, the “Percentage … of the testing drug amount” value [7] was −42.2% and the “Change of WOMAC pain score from baseline (±SEM)” value [7] was −15.0(±2.18) mm. The “Percentage of improvement from baseline, WOMAC pain score” value [7] was −24.6%, the “Change of WOMAC pain score from baseline (±SEM), adjusted by […] of the testing drug amount” value [8] was −35.2(±4.8) mm and the “Percentage … of the testing drug amount” value [8] was −57.6%. For the same molecule, the “Change of WOMAC pain score from baseline (±SEM)” value [8] was −20.5(±2.79) mm, the “Percentage of improvement from baseline, WOMAC pain score” value [8] was −33.6% and the “Change of WOMAC pain score from baseline (±SEM), adjusted by […] of the testing drug amount” value [9] was −43.1(±4.9) mm. For the same molecule, the “Percentage … of the testing drug amount” value [9] was −70.5%, the “Change of WOMAC pain score from baseline (±SEM)” value [9] was −25.1(±2.88) mm and the “Percentage of improvement from baseline, WOMAC pain score” value [9] was −41.1%. The “Change of WOMAC pain score from baseline (±SEM), adjusted by […] of the testing drug amount” value [10] was −45.5(±5.0) mm, the “Percentage … of the testing drug amount” value [10] was −74.4% and the “Change of WOMAC pain score from baseline (±SEM)” value [10] was −26.5(±2.94) mm. The “Percentage of improvement from baseline, WOMAC pain score” value [10] was −43.4%, the “Change of WOMAC pain score from baseline (±SEM), adjusted by […] of the testing drug amount” value [11] was −41.2(±5.3) mm and the “Percentage … of the testing drug amount” value [11] was −69.5%. The “Change of WOMAC pain score from baseline (±SEM)” value [11] was −24.0(±3.09) mm, the “Percentage of improvement from baseline, WOMAC pain score” value [11] was −40.5% and the “Change of WOMAC pain score from baseline (±SEM), adjusted by […] of the testing drug amount” value [12] was −21.6(±4.0) mm. The “Percentage … of the testing drug amount” value [12] was −36.5%, the “Change of WOMAC pain score from baseline (±SEM)” value [12] was −12.6(±2.33) mm and the “Percentage of improvement from baseline, WOMAC pain score” value [12] was −21.3%. The “Change of WOMAC pain score from baseline (±SEM), adjusted by […] of the testing drug amount” value [13] was −30.4(±4.4) mm, the “Percentage … of the testing drug amount” value [13] was −51.2% and the “Change of WOMAC pain score from baseline (±SEM)” value [13] was −17.7(±2.54) mm. For the same molecule, the “Percentage of improvement from baseline, WOMAC pain score” value [13] was −29.9%, the “Change of WOMAC pain score from baseline (±SEM), adjusted by […] of the testing drug amount” value [14] was −38.1(±5.1) mm and the “Percentage … of the testing drug amount” value [14] was −64.3%. For the same molecule, the “Change of WOMAC pain score from baseline (±SEM)” value [14] was −22.2(±2.97) mm, the “Percentage of improvement from baseline, WOMAC pain score” value [14] was −37.5% and the “Change of WOMAC pain score from baseline (±SEM), adjusted by […] of the testing drug amount” value [15] was −43.6(±5.2) mm. For the same molecule, the “Percentage … of the testing drug amount” value [15] was −73.6%, the “Change of WOMAC pain score from baseline (±SEM)” value [15] was −25.4(±3.04) mm and the “Percentage of improvement from baseline, WOMAC pain score” value [15] was −42.9%.
